We go through five compounds from patent publication US20250230193A1, “CYCLIC COMPOUND HAVING SELECTIVE KRAS INHIBITORY EFFECT ON HRAS AND NRAS” (CHUGAI SEIYAKU KABUSHIKI KAISHA, priority 2022, published 2025).

In test [1] the target is GDP-bound NRAS wild-type protein (Homo sapiens, UniProt P01111). Nature of the test: Binding to NRAS by surface plasmon resonance (SPR), Single Cycle Kinetics. The conditions noted are these: KD ratio NRAS/KRAS, SPR. (In general: SPR reads the build-up and loss of mass on a sensor chip optically.)
Sequence of GDP-bound NRAS wild-type protein (P01111 whole entry): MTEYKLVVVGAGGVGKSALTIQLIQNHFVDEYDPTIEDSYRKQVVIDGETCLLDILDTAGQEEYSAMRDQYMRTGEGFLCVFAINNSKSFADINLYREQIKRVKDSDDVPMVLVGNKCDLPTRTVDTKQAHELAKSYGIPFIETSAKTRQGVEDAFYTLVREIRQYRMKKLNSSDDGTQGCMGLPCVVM
Test [2] addresses GDP-bound HRAS wild-type protein (Homo sapiens, UniProt P01112). Nature of the test: Binding to HRAS by surface plasmon resonance (SPR), Single Cycle Kinetics. The conditions noted are these: KD ratio HRAS/KRAS, SPR.

Where a SMILES comes first, the peptide text is derived from it. Bridges are numbered along the chain shown (N, C = ends). [ ]: non-standard residue; d: D form. The star is where a group is joined. hPhe(3-Cl-4-CF3) = N[C@@H](CCc1ccc(C(F)(F)F)c(Cl)c1)C(=O)O; NPrPhe(4-CF3) = CCCN[C@@H](Cc1ccc(C(F)(F)F)cc1)C(=O)O; NMeGly(cPent) = CN[C@H](C(=O)O)C1CCCC1; Pro(4,4-F2) = O=C(O)[C@@H]1CC(F)(F)CN1; Hyp = O=C(O)[C@@H]1C[C@@H](O)CN1; NMeD = CN[C@@H](CC(=O)O)C(=O)O; NMeL = CN[C@@H](CC(C)C)C(=O)O; Morpholide = C1CN(*)CCO1; Ac5c = NC1(C(=O)O)CCCC1; Ac4c = NC1(C(=O)O)CCC1; Sar = CNCC(=O)O

Sequence of GDP-bound HRAS wild-type protein (P01112 whole entry): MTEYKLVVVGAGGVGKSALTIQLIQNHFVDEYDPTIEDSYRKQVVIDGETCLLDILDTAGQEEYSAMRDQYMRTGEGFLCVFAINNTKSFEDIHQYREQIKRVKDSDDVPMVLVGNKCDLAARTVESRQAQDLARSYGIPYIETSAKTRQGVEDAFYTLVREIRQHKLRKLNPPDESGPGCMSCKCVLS

Regarding `CCCN1C(=O)CN(C)C(=O)CN(C)C(=O)[C@H]([C@@H](C)CC)NC(=O)[C@H](CC(C)C)N(C)C(=O)C[C@@H](C(=O)N2CCOCC2)N(C)C(=O)[C@H](C2CCCC2)N(C)C(=O)C2(CCC2)NC(=O)[C@@H]2C[C@@H](OCC)CN2C(=O)[C@H](CCc2ccc(C(F)(F)F)c(Cl)c2)NC(=O)CN(C)C(=O)[C@@H]1Cc1ccc(C(F)(F)F)cc1` [PP0392] ([NMeL]I[Sar][Sar][NPrPhe(4-CF3)][Sar][hPhe(3-Cl-4-CF3)][Hyp](Et)[Ac4c][NMeGly(cPent)][NMeD]-Morpholide; lactam N-11), in test [1], the “NRAS/KRAS (ratio of KD for GDP-bound NRAS wild-type to KD for KRAS)” value was “B (a compound having 3 or more and less than 10 is denoted as B)”. Moreover, the “HRAS/KRAS (ratio of KD for GDP-bound HRAS wild-type to KD for KRAS)” value in test [2] was “C (A compound having a KD ratio of 0.1 or more and less than 3 is denoted as C)”.
For `CCCN1C(=O)CN(C)C(=O)CNC(=O)[C@H]([C@@H](C)CC)NC(=O)[C@H](CC(C)C)N(C)C(=O)C[C@@H](C(=O)N2CCOCC2)N(C)C(=O)[C@H](C2CCCC2)N(C)C(=O)C2(CCC2)NC(=O)[C@@H]2CCCN2C(=O)[C@H](CCc2ccc(C(F)(F)F)c(Cl)c2)NC(=O)CN(C)C(=O)[C@@H]1Cc1ccc(C(F)(F)F)cc1` [PP0393] ([NMeL]IG[Sar][NPrPhe(4-CF3)][Sar][hPhe(3-Cl-4-CF3)]P[Ac4c][NMeGly(cPent)][NMeD]-Morpholide; lactam N-11), the “NRAS/KRAS (ratio of KD for GDP-bound NRAS wild-type to KD for KRAS)” value in test [1] is “B (a compound having 3 or more and less than 10 is denoted as B)”. In addition, in test [2], the “HRAS/KRAS (ratio of KD for GDP-bound HRAS wild-type to KD for KRAS)” value was “B (a compound having 3 or more and less than 10 is denoted as B)”.
As for `CCCN1C(=O)CN(C)C(=O)CNC(=O)[C@H]([C@@H](C)CC)NC(=O)[C@H](CC(C)C)N(C)C(=O)C[C@@H](C(=O)N2CCOCC2)N(C)C(=O)[C@H](C2CCCC2)N(C)C(=O)C2(CCCC2)NC(=O)[C@@H]2CC(F)(F)CN2C(=O)[C@H](CCc2ccc(C(F)(F)F)c(Cl)c2)NC(=O)CN(C)C(=O)[C@@H]1Cc1ccc(C(F)(F)F)cc1` [PP0394] ([NMeL]IG[Sar][NPrPhe(4-CF3)][Sar][hPhe(3-Cl-4-CF3)][Pro(4,4-F2)][Ac5c][NMeGly(cPent)][NMeD]-Morpholide; lactam N-11), in test [1], the “NRAS/KRAS (ratio of KD for GDP-bound NRAS wild-type to KD for KRAS)” value was “C (A compound having a KD ratio of 0.1 or more and less than 3 is denoted as C)”. Further, in test [2], the “HRAS/KRAS (ratio of KD for GDP-bound HRAS wild-type to KD for KRAS)” value is “C (A compound having a KD ratio of 0.1 or more and less than 3 is denoted as C)”.
Turning to `CCCN1C(=O)CN(C)C(=O)CNC(=O)[C@H]([C@@H](C)CC)NC(=O)[C@H](CC(C)C)N(C)C(=O)C[C@@H](C(=O)N2CCOCC2)N(C)C(=O)[C@H](C2CCCC2)N(C)C(=O)C2(CCC2)NC(=O)[C@@H]2CC(F)(F)CN2C(=O)[C@H](CCc2ccc(C(F)(F)F)c(Cl)c2)NC(=O)CN(C)C(=O)[C@@H]1Cc1ccc(C(F)(F)F)cc1` [PP0395] ([NMeL]IG[Sar][NPrPhe(4-CF3)][Sar][hPhe(3-Cl-4-CF3)][Pro(4,4-F2)][Ac4c][NMeGly(cPent)][NMeD]-Morpholide; lactam N-11), in test [1], the “NRAS/KRAS (ratio of KD for GDP-bound NRAS wild-type to KD for KRAS)” value was “B (a compound having 3 or more and less than 10 is denoted as B)”. Further, the “HRAS/KRAS (ratio of KD for GDP-bound HRAS wild-type to KD for KRAS)” value in test [2] is “C (A compound having a KD ratio of 0.1 or more and less than 3 is denoted as C)”.
Regarding `CCCN1C(=O)CN(C)C(=O)CNC(=O)[C@H]([C@@H](C)CC)NC(=O)[C@H](CC(C)C)N(C)C(=O)C[C@@H](C(=O)N2CCOCC2)N(C)C(=O)[C@H](C2CCCC2)N(C)C(=O)C2(CCCC2)NC(=O)[C@@H]2C[C@@H](OCC)CN2C(=O)[C@H](CCc2ccc(C(F)(F)F)c(Cl)c2)NC(=O)CN(C)C(=O)[C@@H]1Cc1ccc(C(F)(F)F)cc1` [PP0396] ([NMeL]IG[Sar][NPrPhe(4-CF3)][Sar][hPhe(3-Cl-4-CF3)][Hyp](Et)[Ac5c][NMeGly(cPent)][NMeD]-Morpholide; lactam N-11), the “NRAS/KRAS (ratio of KD for GDP-bound NRAS wild-type to KD for KRAS)” value in test [1] was “B (a compound having 3 or more and less than 10 is denoted as B)”. In addition, in test [2], the “HRAS/KRAS (ratio of KD for GDP-bound HRAS wild-type to KD for KRAS)” value was “C (A compound having a KD ratio of 0.1 or more and less than 3 is denoted as C)”.
